Data: US6448256B1, “Antibiotic prodrugs” (University of Massachusetts, priority 1999, dated 2002)
pKi: −log10 of the molar value. Values after ≈ are worked out from the molar mass of the structure shown. Where two headings read alike, the source gives them in different places.

Tests used:
E. coli = experiment: MIC against E. coli (Gram-negative control); type: cell-based; details: Escherichia coli; Table 5, Gram-negative control
Experimental: (§1) To further investigate the antibacterial and/or DNA pol III inhibitory activity of various drug compounds, various ester-containing moieties N-linked to the EMAU core were produced as described in Example 1. These prodrugs were assayed for inhibition of B. subtilis DNA pol III and antibiotic activity against a number of bacteria.
(§2) The minimal inhibitory concentrations (MICs) of the four N3-substituted agents and EMAU were determined for B. subtilis (BS), methicillin-sensitive and resistant S. aureus (SA & MRSA), vancomycin-sensitive and resistant E. fecalis (EF& VREF), vancomycin-resistant E. fecium (VREF*), and E. coli (EC) as a Gram-negative control.

MRSA2 = experiment: MIC against methicillin-resistant S. aureus strain MRSA2; type: cell-based; details: Staphylococcus aureus; Table 5
Experimental: as §1, §2

MRSA = experiment: MIC against methicillin-resistant S. aureus strain MRSA / MRSA1; type: cell-based; details: Staphylococcus aureus, MRSA; Table 5
Experimental: as §1, §2

B. subtilis DNA pol III = B. subtilis DNA pol III (Bacillus subtilis, UniProt P13267); experiment: Inhibition of B. subtilis DNA pol III (Ki); type: biochemical; details: Table 4, average of 3 determinations, standard deviation 13.4%; read-out: KI Bs pol III
Experimental: as §1
(§3) The competitive inhibitor constants (Ki) of selected EMAU compounds were determined with three different pol Ills: the pol III enzyme from Bacillus subtilis (BS pol III), and the pol III enzymes of the clinically relevant pathogens, Enterococcus fecalis (EF pol III) and Staphylococcus aureus (SA pol 111).

SA pol III = molecular target: T1, SA pol III (Staphylococcus aureus, UniProt P0C1P9); experiment: Inhibition of S. aureus pol III (Ki); type: biochemical; details: Table 4, average of 3 determinations, standard deviation 13.4%
T1 sequence (P0C1P9 1-1435): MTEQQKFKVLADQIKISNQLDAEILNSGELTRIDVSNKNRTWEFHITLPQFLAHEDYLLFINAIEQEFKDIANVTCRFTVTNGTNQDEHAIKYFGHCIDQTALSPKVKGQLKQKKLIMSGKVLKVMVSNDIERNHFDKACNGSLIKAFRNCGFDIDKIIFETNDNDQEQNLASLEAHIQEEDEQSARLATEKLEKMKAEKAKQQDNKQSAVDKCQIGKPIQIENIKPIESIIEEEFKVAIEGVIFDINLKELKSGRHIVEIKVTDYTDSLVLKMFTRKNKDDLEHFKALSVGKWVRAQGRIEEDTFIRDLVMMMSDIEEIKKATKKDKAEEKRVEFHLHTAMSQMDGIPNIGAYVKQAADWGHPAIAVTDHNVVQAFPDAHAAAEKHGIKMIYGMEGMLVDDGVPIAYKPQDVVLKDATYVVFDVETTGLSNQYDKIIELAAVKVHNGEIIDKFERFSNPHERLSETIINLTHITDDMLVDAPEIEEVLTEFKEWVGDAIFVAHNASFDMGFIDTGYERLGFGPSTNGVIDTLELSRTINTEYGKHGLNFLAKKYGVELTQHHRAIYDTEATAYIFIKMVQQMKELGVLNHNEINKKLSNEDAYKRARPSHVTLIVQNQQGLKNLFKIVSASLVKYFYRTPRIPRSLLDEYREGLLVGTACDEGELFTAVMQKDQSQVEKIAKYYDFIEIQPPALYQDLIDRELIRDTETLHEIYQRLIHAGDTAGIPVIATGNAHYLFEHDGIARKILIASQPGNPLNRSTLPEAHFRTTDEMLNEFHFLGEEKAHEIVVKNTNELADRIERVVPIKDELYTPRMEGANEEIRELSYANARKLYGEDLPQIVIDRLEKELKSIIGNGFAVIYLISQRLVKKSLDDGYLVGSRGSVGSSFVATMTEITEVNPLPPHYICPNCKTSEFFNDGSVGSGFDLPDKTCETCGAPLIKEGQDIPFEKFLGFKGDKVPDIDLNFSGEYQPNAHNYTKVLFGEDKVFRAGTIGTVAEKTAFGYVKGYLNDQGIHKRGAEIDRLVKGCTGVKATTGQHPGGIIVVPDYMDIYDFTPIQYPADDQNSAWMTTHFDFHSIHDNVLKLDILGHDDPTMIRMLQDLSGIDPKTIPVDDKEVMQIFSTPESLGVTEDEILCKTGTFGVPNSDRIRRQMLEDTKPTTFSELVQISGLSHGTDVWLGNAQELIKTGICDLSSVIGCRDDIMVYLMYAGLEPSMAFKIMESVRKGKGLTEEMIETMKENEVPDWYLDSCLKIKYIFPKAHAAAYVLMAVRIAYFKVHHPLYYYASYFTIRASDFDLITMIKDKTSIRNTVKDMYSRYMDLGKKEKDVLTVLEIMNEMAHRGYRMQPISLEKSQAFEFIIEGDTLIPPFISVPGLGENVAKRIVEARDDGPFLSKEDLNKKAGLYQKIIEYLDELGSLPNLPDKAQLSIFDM
Experimental: as §3

[1] = system: vancomycin-resistant E. fecium; experiment: MIC against vancomycin-resistant E. fecium (VRE, VREF*); type: cell-based; details: Enterococcus; Table 5, vancomycin-resistant E. fecium
Experimental: as §1, §2

S. aureus = experiment: MIC against S. aureus (methicillin-sensitive); type: cell-based; details: Staphylococcus aureus, Table 5, methicillin-sensitive; read-out: MIC SA
Experimental: as §1, §2

EF pol III = EF pol III (Enterococcus faecalis, UniProt Q831W8); experiment: Inhibition of E. fecalis pol III (Ki); type: biochemical
Experimental: as §3

[2] = system: vancomycin-resistant E. fecalis; experiment: MIC against vancomycin-resistant E. fecalis (VREF); type: cell-based; details: Table 5, vancomycin-resistant E. fecalis
Experimental: as §2

E. fecalis = experiment: MIC against E. fecalis; type: cell-based; details: Table 5, vancomycin-sensitive; read-out: MIC EF
Experimental: as §1, §2

B. subtilis = experiment: MIC against B. subtilis; type: cell-based; details: Bacillus subtilis, Table 5; read-out: MIC BS
Experimental: as §1, §2

[3] = system: S. aureus (methicillin-sensitive Smith strain); experiment: ip/ip mouse protection against lethal S. aureus infection; type: in vivo, mice
Experimental: Step 1: Screening—Each candidate prodrug is screened for activity in an ip/ip S. aureus protection model. Candidates that display efficacy equivalent to that of HB-EMAU and HB-IMAU are selected for advanced pharmacokinetic analysis and application in the more relevant mouse thigh model of infection.
The efficacy of the propyl derivatives was tested against murine staphylococcal infection in vivo. A simple “ip/ip” system was used, in which 20 gram mice (10 each) were injected ip (intraperitoneally) with a lethal dose (2.3×10^7 CFU) of the methicillin-sensitive Smith strain of S. aureus. The mice were then immediately injected ip with the antibiotic agent as a 1:9 mixture of DMSO:peanut oil. Vancomycin was used as the positive control drug.
Both hydroxybutyl compounds were tested at 10 mg/kg in the mouse protection experiment against lethal S. aureus infection described in Example 4 above.

[4] = Table 4, average of 3 determinations, standard deviation 13.4%, read-out: KI EF pol III

Chain of B. subtilis DNA pol III (P13267 whole entry): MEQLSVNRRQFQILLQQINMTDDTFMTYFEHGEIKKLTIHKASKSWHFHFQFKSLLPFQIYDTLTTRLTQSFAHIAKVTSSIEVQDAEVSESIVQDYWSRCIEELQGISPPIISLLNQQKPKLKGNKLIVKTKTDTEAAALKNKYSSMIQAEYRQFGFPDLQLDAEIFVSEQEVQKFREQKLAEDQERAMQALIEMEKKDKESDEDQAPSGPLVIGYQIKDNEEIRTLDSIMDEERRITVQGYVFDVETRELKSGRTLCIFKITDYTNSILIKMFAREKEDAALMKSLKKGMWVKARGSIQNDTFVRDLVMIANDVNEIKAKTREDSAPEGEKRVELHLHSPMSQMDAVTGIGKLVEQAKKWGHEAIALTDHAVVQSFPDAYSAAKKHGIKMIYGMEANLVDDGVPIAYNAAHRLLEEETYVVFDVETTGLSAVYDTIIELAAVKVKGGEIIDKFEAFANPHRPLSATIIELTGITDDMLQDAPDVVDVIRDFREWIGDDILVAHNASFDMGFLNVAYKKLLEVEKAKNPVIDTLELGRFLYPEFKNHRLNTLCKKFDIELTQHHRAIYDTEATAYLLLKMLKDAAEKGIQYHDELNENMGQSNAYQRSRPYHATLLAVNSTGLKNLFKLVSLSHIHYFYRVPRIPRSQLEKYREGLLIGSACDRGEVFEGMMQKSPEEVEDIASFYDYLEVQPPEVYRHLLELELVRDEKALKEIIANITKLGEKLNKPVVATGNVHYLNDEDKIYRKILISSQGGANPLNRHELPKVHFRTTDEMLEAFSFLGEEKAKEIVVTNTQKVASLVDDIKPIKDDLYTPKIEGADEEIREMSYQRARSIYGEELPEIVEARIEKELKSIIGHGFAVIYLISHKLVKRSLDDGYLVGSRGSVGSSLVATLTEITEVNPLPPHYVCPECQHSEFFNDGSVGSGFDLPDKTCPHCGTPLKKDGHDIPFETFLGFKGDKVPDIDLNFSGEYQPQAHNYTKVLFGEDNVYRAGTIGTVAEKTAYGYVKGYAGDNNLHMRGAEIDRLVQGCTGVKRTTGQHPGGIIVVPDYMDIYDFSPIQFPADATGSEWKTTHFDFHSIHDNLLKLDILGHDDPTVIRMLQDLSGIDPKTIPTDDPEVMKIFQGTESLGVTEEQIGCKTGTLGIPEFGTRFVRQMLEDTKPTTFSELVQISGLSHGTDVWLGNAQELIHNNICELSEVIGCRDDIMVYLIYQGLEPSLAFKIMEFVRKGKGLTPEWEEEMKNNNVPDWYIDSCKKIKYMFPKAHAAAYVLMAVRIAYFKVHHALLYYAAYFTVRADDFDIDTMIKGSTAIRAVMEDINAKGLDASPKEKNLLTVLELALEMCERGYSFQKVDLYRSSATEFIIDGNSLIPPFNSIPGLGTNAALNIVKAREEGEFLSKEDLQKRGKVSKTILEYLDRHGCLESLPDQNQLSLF

| Compound | MIC (E. coli) | MIC (MRSA2) | MIC (MRSA) | pKi (B. subtilis DNA pol III) | pKi (SA pol III) | MIC [1] | MIC (S. aureus) | pKi (EF pol III) | MIC [2] | MIC (E. fecalis) | MIC (B. subtilis) | pKi (EF pol III; [4]) | animals protected ([3]; 5 mg/kg ip) | protection of mice ([3]; 10 mg/kg ip, 10 mice, 2.3×10^7 CFU S. aureus Smith ip, DMSO:peanut oil 1:9) |
| --- | --- | --- | --- | --- | --- | --- | --- | --- | --- | --- | --- | --- | --- | --- |
| CCc1cc(Nc2cc(=O)[nH]c(=O)[nH]2)ccc1C [EMAU, 6-(3-ethyl-4-methylanilino)uracil, reference compound] | > 35 µg/mL | 25 µg/mL (≈ 102 µM) | 25 µg/mL (≈ 102 µM) | 6.60 | 6.09 | 25 µg/mL (≈ 102 µM) | 25 µg/mL (≈ 102 µM) | 6.59 | 25 µg/mL (≈ 102 µM) | 25 µg/mL (≈ 102 µM) | 12 µg/mL (≈ 48.9 µM) | – | – | – |
| CCc1cc(Nc2cc(=O)n(CCO)c(=O)[nH]2)ccc1C [HE-EMAU] | > 35 µg/mL | 17.4 µg/mL (≈ 60.1 µM) | 17.4 µg/mL (≈ 60.1 µM) | 6.70 | 6.01 | 8.7 µg/mL (≈ 30.1 µM) | 8.7 µg/mL (≈ 30.1 µM) | – | 8.7 µg/mL (≈ 30.1 µM) | 6.5 µg/mL (≈ 22.5 µM) | 1.1 µg/mL (≈ 3.8 µM) | 6.77 | – | – |
| CCc1cc(Nc2cc(=O)n(CCCO)c(=O)[nH]2)ccc1C [HP-EMAU] | > 35 µg/mL | 8.3 µg/mL (≈ 27.4 µM) | 8.3 µg/mL (≈ 27.4 µM) | 6.48 | 6.38 | 4.1 µg/mL (≈ 13.5 µM) | 4.1 µg/mL (≈ 13.5 µM) | – | 4.1 µg/mL (≈ 13.5 µM) | 4.1 µg/mL (≈ 13.5 µM) | 1 µg/mL (≈ 3.3 µM) | 6.85 | 70% | protected all mice |
